Assay results published in publication PMC6199744, “Development of Chemical Proteomics for the Folateome and Analysis of the Kinetoplastid Folateome” (ACS Infectious Diseases, 2018).
Like-named read-outs stand apart in the source and are kept apart here.

How the values were obtained:
Type in all cases: binding
[1] = biological target: T1, HeLa cell extract proteins (Homo sapiens, UniProt P33992)
T1 construct: endogenous in cells; host or cells: HeLa cell extract
T1 sequence (P33992 1-734): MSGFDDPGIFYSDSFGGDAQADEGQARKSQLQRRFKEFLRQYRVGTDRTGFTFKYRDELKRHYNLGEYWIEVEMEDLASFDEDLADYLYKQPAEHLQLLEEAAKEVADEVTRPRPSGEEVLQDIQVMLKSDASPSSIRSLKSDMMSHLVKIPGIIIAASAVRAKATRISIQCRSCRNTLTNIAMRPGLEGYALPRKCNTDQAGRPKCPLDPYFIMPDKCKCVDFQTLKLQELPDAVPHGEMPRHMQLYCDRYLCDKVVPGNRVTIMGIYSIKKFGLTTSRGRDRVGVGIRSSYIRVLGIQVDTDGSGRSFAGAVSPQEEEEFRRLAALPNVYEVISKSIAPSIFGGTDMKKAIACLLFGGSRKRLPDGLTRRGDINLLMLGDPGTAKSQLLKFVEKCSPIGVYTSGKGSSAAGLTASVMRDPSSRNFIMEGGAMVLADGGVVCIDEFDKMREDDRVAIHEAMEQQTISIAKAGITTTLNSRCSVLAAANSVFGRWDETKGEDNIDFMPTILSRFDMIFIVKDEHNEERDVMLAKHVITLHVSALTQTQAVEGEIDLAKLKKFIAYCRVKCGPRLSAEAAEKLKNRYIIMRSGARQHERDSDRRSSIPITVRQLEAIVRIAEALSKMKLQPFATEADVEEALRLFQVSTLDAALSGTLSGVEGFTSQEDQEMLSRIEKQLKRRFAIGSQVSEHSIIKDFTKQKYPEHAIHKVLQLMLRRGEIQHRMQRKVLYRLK

[2] = biological target: T2, HeLa cell extract proteins (Homo sapiens, UniProt P13807)
T2 construct: endogenous in cells; host or cells: HeLa cell extract
T2 sequence (P13807 1-737): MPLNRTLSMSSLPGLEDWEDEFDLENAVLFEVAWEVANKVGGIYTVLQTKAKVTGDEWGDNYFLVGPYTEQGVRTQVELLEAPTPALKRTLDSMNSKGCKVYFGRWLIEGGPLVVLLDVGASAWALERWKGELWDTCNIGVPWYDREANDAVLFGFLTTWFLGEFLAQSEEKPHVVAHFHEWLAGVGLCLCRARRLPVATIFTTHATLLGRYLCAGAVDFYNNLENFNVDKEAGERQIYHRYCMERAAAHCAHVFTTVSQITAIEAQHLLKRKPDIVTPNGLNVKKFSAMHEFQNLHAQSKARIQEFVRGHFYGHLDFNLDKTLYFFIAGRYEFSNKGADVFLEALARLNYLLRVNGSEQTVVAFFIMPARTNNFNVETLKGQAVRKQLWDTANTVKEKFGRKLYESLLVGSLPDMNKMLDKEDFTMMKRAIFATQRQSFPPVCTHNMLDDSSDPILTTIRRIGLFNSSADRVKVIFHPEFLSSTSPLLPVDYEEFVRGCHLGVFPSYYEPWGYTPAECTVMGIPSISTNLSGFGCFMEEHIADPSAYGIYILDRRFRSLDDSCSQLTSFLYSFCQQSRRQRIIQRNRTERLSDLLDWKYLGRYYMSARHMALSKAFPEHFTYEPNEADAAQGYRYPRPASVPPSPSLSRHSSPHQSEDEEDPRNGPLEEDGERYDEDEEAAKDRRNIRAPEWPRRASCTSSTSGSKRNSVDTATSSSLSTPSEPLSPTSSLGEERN

[3] = biological target: T3, HeLa cell extract proteins (Homo sapiens, UniProt Q9UHX1)
T3 construct: endogenous in cells; host or cells: HeLa cell extract
T3 sequence (Q9UHX1 1-559): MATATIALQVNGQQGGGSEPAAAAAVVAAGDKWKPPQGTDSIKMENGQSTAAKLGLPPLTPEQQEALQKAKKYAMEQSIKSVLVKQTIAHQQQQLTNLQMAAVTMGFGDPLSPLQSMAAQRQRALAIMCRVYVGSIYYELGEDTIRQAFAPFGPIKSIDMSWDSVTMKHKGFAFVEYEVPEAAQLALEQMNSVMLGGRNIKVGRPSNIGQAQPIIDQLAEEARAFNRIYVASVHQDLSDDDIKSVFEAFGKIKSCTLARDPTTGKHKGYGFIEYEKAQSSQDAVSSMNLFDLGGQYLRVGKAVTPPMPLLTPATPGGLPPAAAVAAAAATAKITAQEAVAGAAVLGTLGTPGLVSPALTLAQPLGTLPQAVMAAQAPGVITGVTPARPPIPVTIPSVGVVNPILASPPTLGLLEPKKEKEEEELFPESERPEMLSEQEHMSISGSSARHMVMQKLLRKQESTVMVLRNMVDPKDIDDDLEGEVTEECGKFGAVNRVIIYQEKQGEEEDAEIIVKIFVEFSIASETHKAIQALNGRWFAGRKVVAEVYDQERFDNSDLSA

[4] = biological target: T4, HeLa cell extract proteins (Homo sapiens, UniProt P51858)
T4 construct: endogenous in cells; host or cells: HeLa cell extract
T4 sequence (P51858 whole entry): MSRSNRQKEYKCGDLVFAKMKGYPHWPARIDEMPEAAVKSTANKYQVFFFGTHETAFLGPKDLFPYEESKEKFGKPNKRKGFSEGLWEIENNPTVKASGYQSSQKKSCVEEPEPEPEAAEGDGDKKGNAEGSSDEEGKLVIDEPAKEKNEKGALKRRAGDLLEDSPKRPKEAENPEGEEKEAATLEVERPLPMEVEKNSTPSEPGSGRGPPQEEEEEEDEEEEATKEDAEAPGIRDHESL

[5] = biological target: T5, HeLa cell extract proteins (Homo sapiens, UniProt Q5T8D3)
T5 construct: endogenous in cells; host or cells: HeLa cell extract
T5 sequence (Q5T8D3 1-534): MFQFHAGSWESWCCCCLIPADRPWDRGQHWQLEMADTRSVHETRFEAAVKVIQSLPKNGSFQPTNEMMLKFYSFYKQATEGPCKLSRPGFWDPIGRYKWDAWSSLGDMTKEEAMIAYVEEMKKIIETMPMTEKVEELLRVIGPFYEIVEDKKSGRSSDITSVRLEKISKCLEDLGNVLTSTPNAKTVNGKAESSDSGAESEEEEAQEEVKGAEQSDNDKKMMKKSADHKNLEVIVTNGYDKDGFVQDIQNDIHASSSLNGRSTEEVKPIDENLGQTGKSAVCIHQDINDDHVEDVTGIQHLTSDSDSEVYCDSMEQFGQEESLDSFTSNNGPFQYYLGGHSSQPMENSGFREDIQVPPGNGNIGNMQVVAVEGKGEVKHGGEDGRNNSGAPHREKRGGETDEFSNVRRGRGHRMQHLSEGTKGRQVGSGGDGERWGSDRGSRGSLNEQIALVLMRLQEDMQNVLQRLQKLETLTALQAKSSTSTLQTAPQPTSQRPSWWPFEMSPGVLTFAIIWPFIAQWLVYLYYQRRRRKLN

[6] = biological target: T6, HeLa cell extract proteins (Homo sapiens, UniProt Q9H974)
T6 construct: endogenous in cells; host or cells: HeLa cell extract
T6 sequence (Q9H974 whole entry): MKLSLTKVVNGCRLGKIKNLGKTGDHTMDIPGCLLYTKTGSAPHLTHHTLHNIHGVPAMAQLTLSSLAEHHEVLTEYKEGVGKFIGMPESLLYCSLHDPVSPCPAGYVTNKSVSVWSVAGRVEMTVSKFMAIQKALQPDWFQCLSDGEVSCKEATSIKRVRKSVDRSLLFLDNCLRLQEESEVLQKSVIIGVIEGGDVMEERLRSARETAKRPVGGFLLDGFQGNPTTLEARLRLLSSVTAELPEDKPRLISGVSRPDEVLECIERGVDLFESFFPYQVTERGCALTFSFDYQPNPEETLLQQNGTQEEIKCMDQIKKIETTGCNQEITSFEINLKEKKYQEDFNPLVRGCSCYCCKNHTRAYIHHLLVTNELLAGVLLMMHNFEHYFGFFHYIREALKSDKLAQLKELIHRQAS

[7] = biological target: T7, HeLa cell extract proteins (Homo sapiens, UniProt O95373)
T7 construct: endogenous in cells; host or cells: HeLa cell extract
T7 sequence (O95373 whole entry): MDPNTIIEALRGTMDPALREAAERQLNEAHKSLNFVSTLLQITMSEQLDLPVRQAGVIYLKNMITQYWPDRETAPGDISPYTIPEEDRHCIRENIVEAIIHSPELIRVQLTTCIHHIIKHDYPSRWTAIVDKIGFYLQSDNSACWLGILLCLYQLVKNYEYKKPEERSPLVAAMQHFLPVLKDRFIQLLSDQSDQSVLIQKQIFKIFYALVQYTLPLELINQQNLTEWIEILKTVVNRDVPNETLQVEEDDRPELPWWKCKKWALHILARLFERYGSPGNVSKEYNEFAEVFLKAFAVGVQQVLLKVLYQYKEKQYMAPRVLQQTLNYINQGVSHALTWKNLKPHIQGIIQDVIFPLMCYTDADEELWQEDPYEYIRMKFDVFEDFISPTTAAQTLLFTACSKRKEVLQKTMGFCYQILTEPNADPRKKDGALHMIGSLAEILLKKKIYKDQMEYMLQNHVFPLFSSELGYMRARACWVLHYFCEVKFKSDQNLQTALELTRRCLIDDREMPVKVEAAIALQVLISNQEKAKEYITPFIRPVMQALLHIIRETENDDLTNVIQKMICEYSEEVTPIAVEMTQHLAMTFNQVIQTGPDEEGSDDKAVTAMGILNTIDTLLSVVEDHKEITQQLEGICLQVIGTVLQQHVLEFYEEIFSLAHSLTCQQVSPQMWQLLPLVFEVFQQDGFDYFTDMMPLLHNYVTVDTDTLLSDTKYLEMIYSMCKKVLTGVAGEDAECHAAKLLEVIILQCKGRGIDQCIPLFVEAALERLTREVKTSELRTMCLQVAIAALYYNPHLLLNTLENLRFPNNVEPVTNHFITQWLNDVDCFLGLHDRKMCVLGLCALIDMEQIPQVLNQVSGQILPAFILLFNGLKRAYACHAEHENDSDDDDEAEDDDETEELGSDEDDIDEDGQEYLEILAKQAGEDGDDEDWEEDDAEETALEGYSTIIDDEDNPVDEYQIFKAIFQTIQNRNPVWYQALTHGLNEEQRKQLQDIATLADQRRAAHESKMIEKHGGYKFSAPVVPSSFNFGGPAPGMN

[8] = biological target: T8, HeLa cell extract proteins (Homo sapiens, UniProt Q16576)
T8 construct: endogenous in cells; host or cells: HeLa cell extract
T8 sequence (Q16576 whole entry): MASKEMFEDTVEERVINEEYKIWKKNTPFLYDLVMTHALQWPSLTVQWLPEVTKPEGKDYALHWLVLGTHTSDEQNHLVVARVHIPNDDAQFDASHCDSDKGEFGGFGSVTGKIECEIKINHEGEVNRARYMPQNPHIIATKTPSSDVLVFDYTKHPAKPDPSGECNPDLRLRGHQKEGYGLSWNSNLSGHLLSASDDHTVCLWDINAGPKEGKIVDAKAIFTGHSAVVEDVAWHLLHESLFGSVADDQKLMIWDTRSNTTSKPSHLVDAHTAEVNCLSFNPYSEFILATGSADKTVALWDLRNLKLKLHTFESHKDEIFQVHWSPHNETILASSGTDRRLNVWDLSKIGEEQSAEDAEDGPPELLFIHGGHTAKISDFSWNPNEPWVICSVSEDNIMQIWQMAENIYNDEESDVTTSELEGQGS

SMILES | fold changes relative to vehicle control ([1]; HeLa, protein MCM5) | fold changes relative to vehicle control ([2]; HeLa, protein GYS1) | fold changes relative to vehicle control ([3]; HeLa, captured protein PUF60) | fold changes relative to vehicle control ([4]; HeLa, protein HDGF) | fold changes relative to vehicle control ([5]; HeLa, captured protein ACBD5) | fold changes relative to vehicle control ([6]; protein QTRTD1, HeLa) | fold changes relative to vehicle control ([7]; HeLa, protein IPO7) | fold changes relative to vehicle control ([8]; HeLa, protein RBBP7) | fold changes relative to vehicle control ([1]; protein MCM5, HeLa) | fold changes relative to vehicle control ([2]; captured protein GYS1, HeLa) | fold changes relative to vehicle control ([3]; HeLa, protein PUF60) | fold changes relative to vehicle control ([4]; protein HDGF, HeLa) | fold changes relative to vehicle control ([5]; HeLa, protein ACBD5) | fold changes relative to vehicle control ([6]; HeLa, protein QTRTD1) | fold changes relative to vehicle control ([7]; protein IPO7, HeLa) | fold changes relative to vehicle control ([8]; protein RBBP7, HeLa) | further results
Nc1nc2c(c(=O)[nH]1)N(C=O)C(CNc1ccc(C(=O)N[C@@H](CCC(=O)O)C(=O)O)cc1)CN2 (some centres unmarked) [LEU, leucovorin] | 0.94 | 0.97 | 1.01 | 1.06 | 1.01 | 0.93 | 0.94 | 1.05 | – | – | – | – | – | – | – | – | –
Nc1nc2[nH]cc(CCc3ccc(C(=O)N[C@@H](CCC(=O)O)C(=O)O)cc3)c2c(=O)[nH]1 [PTX, pemetrexed] | – | – | – | – | – | – | – | – | – | – | – | – | – | – | – | – | fold changes relative to vehicle control [1]: 1.12; fold changes relative to vehicle control [2]: 0.94; fold changes relative to vehicle control [3]: 0.9; fold changes relative to vehicle control [4]: 1.21; fold changes relative to vehicle control [5]: 0.88; fold changes relative to vehicle control [6]: 0.86; fold changes relative to vehicle control [7]: 0.93; fold changes relative to vehicle control [8]: 1.04
CCCCCCOc1ccc(Cc2cnc(N)nc2N)cc1 [compound 1] | – | – | – | – | – | – | – | – | 1.04 | 0.9 | 1.01 | 1.26 | 1.13 | 0.46 | 0.93 | 1.05 | –
CCCCCCOc1cccc(Cc2cnc(N)nc2N)c1 [compound 2] | – | – | – | – | – | – | – | – | 1.41 | 0.84 | 1.05 | 2.45 | 1.13 | 0.93 | 1.09 | 1.47 | –
Nc1nc2cccc(-c3ccccc3)c2n1Cc1ccc(Cl)c(Cl)c1 [compound 3] | – | – | – | – | – | – | – | – | 0.93 | 0.93 | 1.02 | 0.9 | 0.92 | 0.99 | 1.17 | 0.85 | –
NCCOCCOCC(=O)Nc1nc2ncc(CNc3ccc(C(=O)NC(CCC(=O)O)C(=O)O)cc3)nc2c(=O)[nH]1 (centres unmarked) [compound 6] | 1.03 | 0.98 | 0.92 | 1.31 | 1.09 | 0.33 | 0.98 | 1.18 | – | – | – | – | – | – | – | – | –
NCCCNc1ccc(C(=O)NC(CCC(=O)O)C(=O)O)cc1 (centres unmarked) [compound 7] | 0.98 | 0.98 | 0.95 | 0.97 | 1.03 | 0.99 | 0.99 | 0.98 | – | – | – | – | – | – | – | – | –
